Results on 15 compounds are retold here after patent US6031073A, “Cyclic polypeptides comprising a thioether linkage and methods for their preparation” (La Jolla Pharmaceutical Company, priority 1997, dated 2000).

Read-outs that look alike come from different tables or passages of the source.

The conditions of this data set: thioether bond.
The mark [1] stands for this setting: from H-Gly-Pro-Ala(3-Cl)-Leu-Gly-Val-Leu-Gly-Lys-Leu-Hcy-Pro-Gly-OH, 29-membered ring, Na2CO3 (1 mg/mL, pH 10.5), ACN/H2O 1:1, 25.0 °C.

In the case of `CC(C)C[C@@H]1NC(=O)[C@@H](NC(=O)[C@@H]2CCCN2C(=O)CN)CCSCC[C@@H](C(=O)N2CCC[C@H]2C(=O)NCC(=O)O)NC(=O)[C@H](CC(C)C)NC(=O)[C@H](CCCCN)NC(=O)CNC(=O)[C@H](CC(C)C)NC(=O)[C@H](C(C)C)NC(=O)CNC1=O` [2G3-EETE], the ring closure, yield after HPLC (from H-Gly-Pro-Abu(4-Cl)-Leu-Gly-Val-Leu-Gly-Lys-Leu-Hcy-Pro-Gly-OH, 30-membered ring, Na2CO3 (1 mg/mL, pH 10.5), ACN/H2O 1:1, 25.0 °C) came out at 75%.
Compound `CC(C)C[C@@H]1NC(=O)[C@@H](NC(=O)[C@@H]2CCCN2C(=O)CN)CCSC[C@@H](C(=O)N2CCC[C@H]2C(=O)NCC(=O)O)NC(=O)[C@H](CC(C)C)NC(=O)[C@H](CCCCN)NC(=O)CNC(=O)[C@H](CC(C)C)NC(=O)[C@H](C(C)C)NC(=O)CNC1=O` [2G3-EMTE] yielded a ring closure, yield after HPLC (from H-Gly-Pro-Abu(4-Cl)-Leu-Gly-Val-Leu-Gly-Lys-Leu-Cys-Pro-Gly-OH, 29-membered ring, Na2CO3 (1 mg/mL, pH 10.5), ACN/H2O 1:1, 25.0 °C) of 84%.
With `CC(C)C[C@@H]1NC(=O)[C@@H](NC(=O)[C@@H]2CCCN2C(=O)CN)CSCC[C@@H](C(=O)N2CCC[C@H]2C(=O)NCC(=O)O)NC(=O)[C@H](CC(C)C)NC(=O)[C@H](CCCCN)NC(=O)CNC(=O)[C@H](CC(C)C)NC(=O)[C@H](C(C)C)NC(=O)CNC1=O` [2G3-METE], the ring closure, yield after HPLC (from H-Gly-Pro-Cys-Leu-Gly-Val-Leu-Gly-Lys-Leu-Abu(4-Cl)-Pro-Gly-OH, 29-membered ring, Na2CO3 (1 mg/mL, pH 10.5), ACN/H2O 1:1, 25.0 °C) worked out at 36%.
Regarding `CC(C)C[C@@H]1NC(=O)[C@@H](NC(=O)[C@@H]2CCCN2C(=O)CN)CSC[C@@H](C(=O)N2CCC[C@H]2C(=O)NCC(=O)O)NC(=O)[C@H](CC(C)C)NC(=O)[C@H](CCCCN)NC(=O)CNC(=O)[C@H](CC(C)C)NC(=O)[C@H](C(C)C)NC(=O)CNC1=O` [2G3-MMTE], the ring closure, yield after HPLC (from H-Gly-Pro-Ala(3-Cl)-Leu-Gly-Val-Leu-Gly-Lys-Leu-Cys-Pro-Gly-OH, 28-membered ring, Na2CO3 (1 mg/mL, pH 10.5), ACN/H2O 1:1, 25.0 °C) is 87%.
For the compound `CC(C)C[C@@H]1NC(=O)[C@@H](NC(=O)[C@@H]2CCCN2C(=O)CNC(=O)[C@H](C)N)CCSC[C@@H](C(=O)N2CCC[C@H]2C(=O)NCC(=O)O)NC(=O)[C@H](CC(C)C)NC(=O)[C@H](CCCCN)NC(=O)CNC(=O)[C@H](CC(C)C)NC(=O)[C@H](C(C)C)NC(=O)CNC1=O` [3G3-EMTE], the ring closure, yield after HPLC (from H-Ala-Gly-Pro-Abu(4-Cl)-Leu-Gly-Val-Leu-Gly-Lys-Leu-Cys-Pro-Gly-OH, 29-membered ring, Na2CO3 (1 mg/mL, pH 10.5), ACN/H2O 1:1, 0.71 mM, 25.0 °C) stood at 94%.
The compound `CC(C)C[C@@H]1NC(=O)[C@@H](NC(=O)[C@@H]2CCCN2C(=O)CNC(=O)[C@H](C)NC(=O)OCC2c3ccccc3-c3ccccc32)CCSC[C@@H](C(=O)N2CCC[C@H]2C(=O)NCC(=O)O)NC(=O)[C@H](CC(C)C)NC(=O)[C@H](CCCCN)NC(=O)CNC(=O)[C@H](CC(C)C)NC(=O)[C@H](C(C)C)NC(=O)CNC1=O` [3G3-EMTE] came in with a ring closure, yield after HPLC (from Fmoc-Ala-Gly-Pro-Abu(4-Cl)-Leu-Gly-Val-Leu-Gly-Lys-Leu-Cys-Pro-Gly-OH, 29-membered ring, Na2CO3 (1 mg/mL, pH 10.5), ACN/H2O 1:1, 0.63 mM, 25.0 °C, 2 steps) of 33%.
Where the note is “from H-Ala-Gly-Pro-Ala(3-Cl)-Leu-Gly-Val-Leu-Gly-Lys-Leu-Cys-Pro-Gly-OH, 28-membered ring, Na2CO3 (1 mg/mL, pH 10.5), ACN/H2O 1:1, 25.0 °C”, `CC(C)C[C@@H]1NC(=O)[C@@H](NC(=O)[C@@H]2CCCN2C(=O)CNC(=O)[C@H](C)N)CSC[C@@H](C(=O)N2CCC[C@H]2C(=O)NCC(=O)O)NC(=O)[C@H](CC(C)C)NC(=O)[C@H](CCCCN)NC(=O)CNC(=O)[C@H](CC(C)C)NC(=O)[C@H](C(C)C)NC(=O)CNC1=O` [3G3-MMTE] registered a ring closure, yield after HPLC of 89%.
Where the note is “from H-Gly-Pro-Ala(3-Br)-Leu-Ile-Leu-Ala-Pro-Asp-Arg-Cys-NH2, 28-membered ring, Na2CO3 (pH 10.5), H2O, 0.15 mM”, `CC[C@H](C)[C@@H]1NC(=O)[C@H](CC(C)C)NC(=O)[C@@H](NC(=O)[C@@H]2CCCN2C(=O)CN)CSC[C@@H](C(N)=O)NC(=O)[C@H](CCCNC(=N)N)NC(=O)[C@H](CC(=O)O)NC(=O)[C@@H]2CCCN2C(=O)[C@H](C)NC(=O)[C@H](CC(C)C)NC1=O` [CB10-MMTE] gave a ring closure, yield after HPLC of 27%.
Turning to `CC(C)C[C@@H]1NC(=O)[C@H](CCCCN)NC(=O)CNC(=O)[C@H](CC(C)C)NC(=O)[C@H](C(C)C)NC(=O)CNC(=O)[C@H](CC(C)C)NC(=O)[C@@H](N)CCSCC[C@@H](C(N)=O)NC1=O` [G3-EETE], the ring closure, yield after HPLC (from H-Abu(4-Cl)-Leu-Gly-Val-Leu-Gly-Lys-Leu-Hcy-NH2, 30-membered ring, Na2CO3 (1 mg/mL, pH 10.5), ACN/H2O 1:1, 25.0 °C) came out at 48%.
`CC(C)C[C@@H]1NC(=O)[C@H](CCCCN)NC(=O)CNC(=O)[C@H](CC(C)C)NC(=O)[C@H](C(C)C)NC(=O)CNC(=O)[C@H](CC(C)C)NC(=O)[C@@H](N)CCSC[C@@H](C(N)=O)NC1=O` [G3-EMTE]: the ring closure, yield after HPLC (from H-Abu(4-Cl)-Leu-Gly-Val-Leu-Gly-Lys-Leu-Cys-NH2, 29-membered ring, Na2CO3 (1 mg/mL, pH 10.5), ACN/H2O 1:1, 25.0 °C) came out at 51%.
Turning to `CC(C)C[C@@H]1NC(=O)[C@H](CCCCN)NC(=O)CNC(=O)[C@H](CC(C)C)NC(=O)[C@H](C(C)C)NC(=O)CNC(=O)[C@H](CC(C)C)NC(=O)[C@@H](N)CSCC[C@@H](C(N)=O)NC1=O` [G3-METE], the ring closure, yield after HPLC (from H-Ala(3-Cl)-Leu-Gly-Val-Leu-Gly-Lys-Leu-Hcy-NH2, 29-membered ring, Na2CO3 (1 mg/mL, pH 10.5), ACN/H2O 1:1, 25.0 °C) came to 52%.
In turn, `CC(C)C[C@@H]1NC(=O)[C@H](CCCCN)NC(=O)CNC(=O)[C@H](CC(C)C)NC(=O)[C@H](C(C)C)NC(=O)CNC(=O)[C@H](CC(C)C)NC(=O)[C@@H](N)CSC[C@@H](C(N)=O)NC1=O` [G3-MMTE] gave a ring closure, yield after HPLC (from H-Ala(3-Cl)-Leu-Gly-Val-Leu-Gly-Lys-Leu-Cys-NH2, 28-membered ring, Na2CO3 (1 mg/mL, pH 10.5), ACN/H2O 1:1, 25.0 °C) of 49%.
Turning to `CC(C)C[C@@H]1NC(=O)[C@@H](NC(=O)[C@@H]2CCCN2C(=O)CNC(=O)[C@H](C)NC(=O)OCC2c3ccccc3-c3ccccc32)CCSC[C@@H](C(=O)N2CCC[C@H]2C(=O)NCC(=O)O)NC(=O)[C@H](CC(C)C)NC(=O)[C@H](CCCCN)NC(=O)CNC(=O)[C@H](CC(C)C)NC(=O)[C@H](C(C)C)NC(=O)CNC1=O` [N^α -Fmoc-3G3-EMTE], the ring closure, yield after HPLC (from Fmoc-Ala-Gly-Pro-Abu(4-Cl)-Leu-Gly-Val-Leu-Gly-Lys-Leu-Cys-Pro-Gly-OH, 29-membered ring, Na2CO3 (1 mg/mL, pH 10.5), ACN/H2O 1:1, 0.63 mM, 25.0 °C) is 19%.
Consider `CC(C)C[C@@H]1NC(=O)[C@@H](NC(=O)[C@@H]2CCCN2C(=O)CN)CSCC[C@@H](C(=O)N2CCC[C@H]2C(=O)NCC(=O)O)NC(=O)[C@H](CC(C)C)NC(=O)[C@H](CCCCN)NC(=O)CNC(=O)[C@H](CC(C)C)NC(=O)[C@H](C(C)C)NC(=O)CNC1=O` [d-2G3-METE], for which, under setting [1], the ring closure, yield after HPLC came to 16%.
`CC(C)C[C@@H]1NC(=O)[C@@H](NC(=O)[C@@H]2CCCN2C(=O)CN)CSCC[C@@H](C(=O)N2CCC[C@H]2C(=O)NCC(=O)O)NC(=O)[C@H](CC(C)C)NC(=O)[C@H](CCCCN)NC(=O)CNC(=O)[C@H](CC(C)C)NC(=O)[C@H](C(C)C)NC(=O)CNC1=O` [l-2G3-METE] registered a ring closure, yield after HPLC under setting [1] of 29%.
